Experimental data from patent publication US7892574B2, “Topical administration of oxazolidinones for transdermal delivery” (Pharmacia & Upjohn Company, LLC, priority 1998, dated 2011).

Assays:
Type in all cases: in vivo
acne = test: Human who has acne treated with an Oxazolidinone ointment; conditions: person, ointment containing 30 mg/ml, topical, twice daily
Description: A Human Who has Acne is Treated with an Oxazolidinone Ointment

wound infection = test: Human with wound infection treated with Oxazolidinone gel; conditions: person, punctured finger, gel containing 1%, twice daily for 10 days
Description: Human with Wound Infection is Treated with Oxazolidinone Gel
A 65 kg person who has a severely swollen and painful finger with a history of having punctured the finger on a rose thorn two days previously is treated by administering a gel containing 1% N-((5S)-3-(3-fluoro-4-(4-(2-fluoroethyl)-3-oxopiperazin-1-yl)phenyl)-2-oxooxazolidin-5-ylmethyl)acetamide twice daily for 10 days. The site of inflammation is kept lightly covered with a sterile bandage following antibiotic therapy.

otitis media = test: Human who has an ear infection treated with Oxazolidinone solution; conditions: child, ten drops of solution containing 10 mg/ml into the ear twice daily for ten days; before 10 days
Description: A Human Who has an Ear Infection is Treated with Oxazolidinone Solution
Ten drops of a solution containing 10 mg/ml of (S)-N-[[3-[3-fluoro-4-(4-morpholinyl)phenyl]-2-oxo-5-oxazolidinyl]methyl]acetamide is dropped into the ear twice daily for ten days with an eye dropper and is immediately followed by closing the outer ear canal with cotton.

Q: `CC(=O)NC[C@H]1CN(c2ccc(N3CCN(C(=O)CO)CC3)c(F)c2)C(=O)O1` [Example 1, (S)-N-[[3-[3-Fluoro-4-[4-(hydroxyacetyl)-1-piperazinyl]-phenyl]-2-oxo-5-oxazolidinyl]methyl]acetamide] was tested. Which “reddened and swollen pustules after administration” value (acne) did it give?
A: greatly reduced

Q: For `CC(=O)NC[C@H]1CN(c2ccc(N3CCN(CCF)C(=O)C3)c(F)c2)C(=O)O1` [Example 4, N-((5S)-3-(3-Fluoro-4-(4-(2-fluoroethyl)-3-oxopiperazin-1-yl)phenyl)-2-oxooxazolidin-5-ylmethyl)acetamide], which wound healing (wound infection) is on record?
A: The wound heals

Q: How did the fever (otitis media) turn out when `CC(=O)NC[C@H]1CN(c2ccc(N3CCOCC3)c(F)c2)C(=O)O1` [Example 2, (S)-N-[[3-[3-Fluoro-4-(4-morpholinyl)phenyl]-2-oxo-5-oxazolidinyl]methyl]acetamide] was run?
A: the fever is down

Q: What about the pain (otitis media) of the same compound?
A: the pain is gone
